Experimental data from patent US20220280590A1, “USE OF INHIBITORS OF YAP AND SOX2 FOR THE TREATMENT OF CANCER” (Georgetown University, priority 2019, published 2022).

Assays:
[1] = system: primary KYYF pancreatic tumor cells; experiment: Relative mRNA levels of lineage genes and SOX2 in KYYF pancreatic tumor cells; format: cell-based, mouse; details: YAP+ primary pancreatic tumor cells, 0.5, 2, 5 μM for 3 days versus DMSO
Text: (§1) (*P<0.05; **P<0.005; ***P<0.0005; ns: not significant; error bars indicate standard deviation).
(§2) Quantitative methylation-specific PCR (qMSP) was used to confirm that the promoters of acinar lineage genes Ptf1a and Bhlha15 became heavily methylated in KF pancreatic tumors in contrast to wild type (WT) pancreata, which was partially reversed in KYYF pancreata after TAM treatment (FIG. 5L). To directly assess the effects of DNA de-methylation on the expression of pancreatic lineage genes, YAP^+ primary pancreatic tumor cells were treated with vehicle control or DNA methylation inhibitor 5-azacytidine (5-Aza). […] The levels of global DNA methylation in primary KYYF pancreatic tumor cells were measured following treatment with Ad-GFP or Ad-CRE, and it was confirmed that YAP ablation induced a rapid and significant decline in global DNA methylation, which partially recovered over time (FIG. 5B).

[2] = system: primary KYYF pancreatic tumor cells; experiment: Percent of global DNA methylation in KYYF cells; format: cell-based, mouse; details: 5 μM, 3 days versus DMSO
Text: as §1, §2

[3] = system: SOX2, SOX5, and TWIST2 in primary PDAC cell lines; experiment: Western blot of pluripotent transcription factors in primary PDAC lines; format: cell-based; details: after 24 hours, compared to DMSO control
Experimental: Western blot assay with indicated antibodies in four different primary PDAC lines expressing variable levels of SOX2/SOX5/TWIST2 after 24 hr treatment with DMSO (−) or Miv (+) is shown. Multiple primary PDAC cell lines were treated with BET inhibitor mivebresib.

[4] = system: mT4, 08031-9, MD-MB-231, 786-O and HepG2 cells; experiment: FACS analysis of relative ratios of control (RFP-) and YAP/TAZ-depleted (shY/T, RFP+) cancer cells in co-culture; format: cell-based; details: compared to vehicle, pancreatic, schwannoma, breast, kidney and liver cancer lines
Experimental: FACS analysis of the relative ratios of control (Ctrl, RFP-) or YAP/TAZ-depleted (shY/T, RFP^+) cancer cells after co-culturing in the presence of vehicle (Veh) or BE inhibitor mivebresib (Miv) was performed (n=3). […] The YAP/TAZ hairpin RNAs were fused with fluorescent protein RFP. […] (FIG. 8).

Row | SMILES | expression of acinar and endocrine lineage genes and SOX2 [1] | global DNA methylation [2] | expression of pluripotent transcription factors SOX2, SOX5, and TWIST2 [3] | percentage of control (RFP-) relative to shY/T (RFP+) cancer cells [4]
1 | Nc1ncn([C@@H]2O[C@H](CO)[C@@H](O)[C@H]2O)c(=O)n1 [5-Aza, 5-azacytidine] | dose-dependent upregulation | global DNA de-methylation | – | –
2 | CCS(=O)(=O)Nc1ccc(Oc2ccc(F)cc2F)c(-c2cn(C)c(=O)c3[nH]ccc23)c1 [mivebresib] | – | – | selectively reduced | greater percentage of control (RFP^−) cancer cells relative to shY/T (RFP^+) cancer cells
